Reference: the CheMixHub viscosity set
± gives the uncertainty stated by the source.

Experiment: xn = mol fraction of the nth substance listed
Conditions: 101 kPa

CCC(=O)CC + CCOC(=O)OCC
viscosity [mPa·s]
Conditions | x2 = 0.0893 | x2 = 0.1498 | x2 = 0.2601 | x2 = 0.3555 | x2 = 0.4667 | x2 = 0.5689 | x2 = 0.6701 | x2 = 0.7565 | x2 = 0.8858 | x2 = 0.9501
303.15 K | 0.452 ± 0.013 | 0.468 ± 0.014 | 0.496 ± 0.015 | 0.521 ± 0.015 | 0.55 ± 0.016 | 0.578 ± 0.016 | 0.606 ± 0.017 | 0.631 ± 0.018 | 0.668 ± 0.019 | 0.686 ± 0.019
308.15 K | 0.417 ± 0.013 | 0.431 ± 0.013 | 0.457 ± 0.014 | 0.481 ± 0.014 | 0.509 ± 0.015 | 0.535 ± 0.015 | 0.563 ± 0.016 | 0.586 ± 0.017 | 0.622 ± 0.018 | 0.641 ± 0.018
313.15 K | 0.405 ± 0.012 | 0.417 ± 0.013 | 0.439 ± 0.013 | 0.459 ± 0.014 | 0.484 ± 0.014 | 0.508 ± 0.015 | 0.532 ± 0.015 | 0.554 ± 0.016 | 0.589 ± 0.017 | 0.607 ± 0.017

NCCO + CN1CCCC1=O
viscosity [mPa·s]
Conditions | 293.15 K | 298.15 K | 303.15 K | 308.15 K | 313.15 K | 318.15 K | 323.15 K
x1 = 0.1558 | 2.99 ± 0.026 | 2.712 ± 0.023 | 2.484 ± 0.021 | 2.293 ± 0.02 | 2.133 ± 0.018 | 1.996 ± 0.017 | –
x1 = 0.3001 | 3.547 ± 0.031 | 3.176 ± 0.028 | 2.869 ± 0.025 | 2.612 ± 0.023 | 2.397 ± 0.021 | 2.218 ± 0.019 | 2.065 ± 0.018
x1 = 0.4204 | 4.72 ± 0.041 | 4.121 ± 0.036 | 3.633 ± 0.032 | 3.236 ± 0.028 | 2.909 ± 0.026 | 2.638 ± 0.023 | 2.415 ± 0.021
x2 = 0.2076 | – | – | 10.07 ± 0.49 | – | 6.755 ± 0.35 | – | 5.018 ± 0.28
x2 = 0.4003 | – | – | 6.647 ± 0.35 | – | 4.811 ± 0.27 | – | 3.622 ± 0.21
x2 = 0.5994 | – | – | 4.361 ± 0.25 | – | 3.317 ± 0.19 | – | 2.559 ± 0.15
x2 = 0.7992 | – | – | 2.604 ± 0.15 | – | 2.118 ± 0.13 | – | 1.799 ± 0.11

CN1CCCC1=O + CN(C)C=O
viscosity [mPa·s]
Conditions | x2 = 0.1003 | x2 = 0.2001 | x2 = 0.2997 | x2 = 0.4 | x2 = 0.5007 | x2 = 0.595 | x2 = 0.7 | x2 = 0.8 | x2 = 0.9003
303.15 K | 1.417 ± 0.018 | 1.328 ± 0.017 | 1.249 ± 0.016 | 1.17 ± 0.015 | 1.085 ± 0.014 | 1.018 ± 0.013 | 0.943 ± 0.013 | 0.872 ± 0.012 | 0.809 ± 0.011
313.15 K | 1.231 ± 0.015 | 1.152 ± 0.015 | 1.085 ± 0.014 | 1.02 ± 0.013 | 0.948 ± 0.013 | 0.891 ± 0.012 | 0.832 ± 0.012 | 0.775 ± 0.011 | 0.721 ± 0.011
323.15 K | 1.097 ± 0.014 | 1.024 ± 0.013 | 0.967 ± 0.013 | 0.908 ± 0.012 | 0.846 ± 0.012 | 0.794 ± 0.011 | 0.742 ± 0.011 | 0.692 ± 0.01 | 0.646 ± 0.01
